Test results from patent EP3539977B1, “ENZYMES WITH CHLOROGENIC ACID ESTERASE ACTIVITY AND FERULOYL ESTERASE ACTIVITY” (SternEnzym GmbH & Co. KG, priority 2014, dated 2016).
Values joined by “and” are separate entries in the source; they are usually repeats but may differ in a detail not shown here. Equal entries are not always repeated.

Legend:
UmChlE [1] = target: T1, UmChlE (Mycosarcoma maydis, UniProt A0A060S684, P492L); format: biochemical, Ustilago maydis; details: buffer (Tris pH 7.5) / organic solvent 1:1 (v/v), 0.7 mM methyl ferulate, 1 h, 37 °C, 900 rpm; without solvent = 100 %; standard error in parentheses; ND = activity not detectable
T1 construct: purification of the chlorogenic acid esterase UmChlE from culture supernatant of U. maydis was accomplished by three complementary separation steps; made in house; host or cells: Ustilago maydis itself (native producer), culture supernatant; Q Sepharose FF, preparative IEF, polyamide column
Method: Chlorogenic acid esterase activity was determined at 37 °C in 50 mM Tris buffer at pH 7.5 using chlorogenic acid and methyl ferulate as standard substrates, unless otherwise stated. The release of the corresponding free acids was analyzed with HPLC-UV. If appropriate, the hydrolysis of other benzoic and cinnamic acid ester derivatives as well as feruloylated saccharides was measured with the same method. After incubation for one hour the reaction was terminated by doubling the reacting volume with acetonitrile. Samples were centrifuged (15 min, 15.000 × g) before injection to the HPLC (Chromolith Performance RP-18e reverse-phase column, 100 × 4.6 mm, Merck, Darmstadt, Germany). […] Substance elution was detected at 232 nm (benzoic and 3-hydroxybenzoic acid), 254 nm (4-hydroxybenzoic and vanillic acid), 275 nm (cinnamic and gallic acid), 306 nm (p-coumaric acid) and 323 nm (ferulic, caffeic, chlorogenic and sinapic acid) using a Shimadzu UV-Vis detector (SPD-10A VP, Shimadzu Deutschland GmbH, Duisburg, Germany). One unit of enzyme activity was defined as the amount of enzyme releasing one µmοl of free acid per minute under the specified conditions. All measurements were performed at least twice. […]

UmChlE [2] = target: T1, UmChlE; format: biochemical, Ustilago maydis; details: 1 mM (or 1.95 mM) substrate, 1 h, 37 °C, 50 mM Tris pH 7.5; ND = activity not detectable
Method: (§1) Chlorogenic acid esterase activity was determined at 37 °C in 50 mM Tris buffer at pH 7.5 using chlorogenic acid and methyl ferulate as standard substrates, unless otherwise stated. The release of the corresponding free acids was analyzed with HPLC-UV. If appropriate, the hydrolysis of other benzoic and cinnamic acid ester derivatives as well as feruloylated saccharides was measured with the same method. After incubation for one hour the reaction was terminated by doubling the reacting volume with acetonitrile. Samples were centrifuged (15 min, 15.000 × g) before injection to the HPLC (Chromolith Performance RP-18e reverse-phase column, 100 × 4.6 mm, Merck, Darmstadt, Germany). […] Substance elution was detected at 232 nm (benzoic and 3-hydroxybenzoic acid), 254 nm (4-hydroxybenzoic and vanillic acid), 275 nm (cinnamic and gallic acid), 306 nm (p-coumaric acid) and 323 nm (ferulic, caffeic, chlorogenic and sinapic acid) using a Shimadzu UV-Vis detector (SPD-10A VP, Shimadzu Deutschland GmbH, Duisburg, Germany). One unit of enzyme activity was defined as the amount of enzyme releasing one µmοl of free acid per minute under the specified conditions. All measurements were performed at least twice.
Substrate specificity of the UmChlE was determined towards different cinnamate and benzoate esters as well as natural substrates, such as F-A, F-AX and F-AXG, with activity assays as described above. Three mM stock solutions of all substrates were prepared in water.
Purified UmChlE was incubated with 1 mM, or, in a further experiment, 1.95 mM of different substrates for 1 h (at 37 °C, 50 mM Tris buffer pH 7.5). Relative enzyme activities were calculated based on the most preferred substance of the UmChIE: chlorogenic acid which was set to 100 %. Numbers in parentheses are the estimates of the standard error.

RsChlE = target: T2, RsChlE (Rhizoctonia solani, UniProt A0A1D0BQV8); assay: Substrate specificity of purified RsChlE; format: biochemical; details: 1 mM (or 1.95 mM) substrate, 1 h, 30 °C, 50 mM Bis-Tris pH 6.0
T2 sequence (A0A1D0BQV8 39-563): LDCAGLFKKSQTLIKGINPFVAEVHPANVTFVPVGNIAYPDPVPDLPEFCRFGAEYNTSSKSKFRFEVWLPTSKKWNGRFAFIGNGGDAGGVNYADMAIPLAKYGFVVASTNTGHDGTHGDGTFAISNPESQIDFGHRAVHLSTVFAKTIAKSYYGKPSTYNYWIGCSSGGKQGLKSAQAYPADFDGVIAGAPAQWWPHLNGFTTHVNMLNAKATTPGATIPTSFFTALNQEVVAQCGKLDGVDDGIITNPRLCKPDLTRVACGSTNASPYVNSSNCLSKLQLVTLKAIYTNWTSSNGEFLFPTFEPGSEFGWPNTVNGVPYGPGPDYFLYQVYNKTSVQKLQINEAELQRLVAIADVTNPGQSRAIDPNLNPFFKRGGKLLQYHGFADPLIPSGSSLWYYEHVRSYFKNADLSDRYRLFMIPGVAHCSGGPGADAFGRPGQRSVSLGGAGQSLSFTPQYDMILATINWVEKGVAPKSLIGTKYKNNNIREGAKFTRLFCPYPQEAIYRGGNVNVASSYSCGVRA
Method: as §1
(§2) After purification of the recombinant RsChlE from the culture supernatant of Pichia pastoris with Ni-NTA, the enzyme was biochemically characterized. The experiments were performed like for UmChlE. pH and temperature optimums were analyzed. […] Table 4: Substrate specificity of purified RsChIE.
Purified RsChlE was incubated with 1 mM, or in an alternative experiment, 1.95 mM of different substrates for 1 h (at 30 °C, 50 mM Bis-Tris buffer pH 6.0). […] Numbers in parentheses are the estimates of the standard error.

[3] = system: FAE of Penicillium expansum; details: literature (42); cited from earlier work
UmChlE [4] = target: T1, UmChlE; assay: Kinetic parameters of UmChlE from initial hydrolysis rates; format: biochemical, Ustilago maydis; details: 0.005 - 1 mM substrate, 60 min, 37 °C, pH 7.5
Method: (§3) Km and vmax values were calculated with non-linear regression using SigmaPlot 10.0 (Systat Software Inc., Chicago, USA). Blanks were carried out for all assays using water instead of enzyme. For calculation of kcat the molecular mass was determined using denaturing SDS-PAGE.
Kinetic properties were determined from initial hydrolysis rates for the most preferred substrates chlorogenic acid, MFA and MpCA. […] Consequently, the catalytic efficiency (kca/Km), a good indicator for enzyme efficiency and specificity, was better for chlorogenic acid than for the two synthetic substrates.

[5] = target: T3, chlorogenic acid hydrolases from A. niger (Aspergillus niger, UniProt A7YN26); details: literature (13, 14); cited from earlier work
T3 sequence (A7YN26 19-512): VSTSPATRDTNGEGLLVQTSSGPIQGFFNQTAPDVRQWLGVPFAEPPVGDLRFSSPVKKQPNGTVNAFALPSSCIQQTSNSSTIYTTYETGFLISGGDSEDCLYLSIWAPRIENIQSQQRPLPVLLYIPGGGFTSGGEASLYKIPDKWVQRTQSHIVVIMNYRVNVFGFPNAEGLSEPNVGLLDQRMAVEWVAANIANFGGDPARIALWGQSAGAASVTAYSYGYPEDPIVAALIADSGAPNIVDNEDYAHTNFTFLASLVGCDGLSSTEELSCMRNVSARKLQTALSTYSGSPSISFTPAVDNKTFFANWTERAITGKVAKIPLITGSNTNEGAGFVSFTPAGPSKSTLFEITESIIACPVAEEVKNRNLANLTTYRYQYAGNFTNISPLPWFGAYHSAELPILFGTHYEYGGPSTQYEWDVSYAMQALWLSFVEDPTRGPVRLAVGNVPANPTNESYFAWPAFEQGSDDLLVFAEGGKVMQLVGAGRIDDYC

[6] = system: second published chlorogenic acid hydrolases from A. niger; details: literature (11); cited from earlier work
A. niger FAEB = A. niger FAEB (Aspergillus niger, UniProt Q8WZI8); details: literature (34); cited from earlier work
[7] = target: T4, type B feruloyl esterase from N. crassa (Neurospora crassa, UniProt Q9HGR3); details: literature (35); cited from earlier work
T4 sequence (Q9HGR3 19-292): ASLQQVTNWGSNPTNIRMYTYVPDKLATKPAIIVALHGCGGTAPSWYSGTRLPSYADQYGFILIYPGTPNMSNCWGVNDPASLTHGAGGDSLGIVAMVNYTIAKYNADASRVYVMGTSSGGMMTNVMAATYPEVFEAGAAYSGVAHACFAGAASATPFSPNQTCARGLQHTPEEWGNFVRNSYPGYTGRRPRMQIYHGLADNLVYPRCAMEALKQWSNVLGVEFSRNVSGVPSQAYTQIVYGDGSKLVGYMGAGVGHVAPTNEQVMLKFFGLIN

AoFaeB from A. oryzae = target: T5, AoFaeB from A. oryzae (Aspergillus oryzae, UniProt Q2UP89); details: literature (19); cited from earlier work
T5 sequence (Q2UP89 19-540): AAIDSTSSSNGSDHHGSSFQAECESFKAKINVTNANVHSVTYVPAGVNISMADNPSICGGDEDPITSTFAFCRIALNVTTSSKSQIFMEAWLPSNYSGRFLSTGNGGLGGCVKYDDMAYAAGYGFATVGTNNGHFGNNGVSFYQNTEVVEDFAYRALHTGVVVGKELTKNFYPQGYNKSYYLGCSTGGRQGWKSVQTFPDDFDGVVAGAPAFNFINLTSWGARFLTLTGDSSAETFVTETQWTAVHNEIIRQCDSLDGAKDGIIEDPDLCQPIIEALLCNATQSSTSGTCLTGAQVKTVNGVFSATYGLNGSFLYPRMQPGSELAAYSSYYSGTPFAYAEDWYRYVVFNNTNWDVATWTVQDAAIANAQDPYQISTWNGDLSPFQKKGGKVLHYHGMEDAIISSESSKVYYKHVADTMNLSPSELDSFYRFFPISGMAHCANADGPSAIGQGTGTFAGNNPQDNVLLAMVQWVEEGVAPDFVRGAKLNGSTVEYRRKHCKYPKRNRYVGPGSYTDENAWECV

[8] = system: type B feruloyl esterases; details: literature; cited from earlier work
[9] = substrate: COC(=O)/C=C/c1ccc(O)cc1; assay: purified protein, by the assay type
[10] = substrate: COC(=O)/C=C/c1ccc(O)c(O)c1; assay: Kinetic analysis of RsChlE; format: biochemical, Rhizoctonia solani
Method: as §3, §2
(§4) In the following, the kinetic constants were determined to decide if the enzyme has mainly chlorogenic acid esterase or feruloyl esterase activity. Table 5: kinetic analysis of RsChlE

[11] = substrate: COc1cc(/C=C/C(=O)OC[C@@H]2OC(O)[C@H](O[C@@H]3OC[C@@H](O)[C@H](O)[C@H]3O)[C@H]2O)ccc1O; assay: Kinetic analysis of RsChlE; format: biochemical, Rhizoctonia solani
Method: as §3, §2, §4

[12] = substrate: O=C(/C=C/c1ccc(O)c(O)c1)O[C@@H]1C[C@](O)(C(=O)O)C[C@@H](O)[C@H]1O; assay: Kinetic analysis of RsChlE; format: biochemical, Rhizoctonia solani
Method: as §3, §2, §4

T1 sequence (A0A060S684 22-585, stated change not applied): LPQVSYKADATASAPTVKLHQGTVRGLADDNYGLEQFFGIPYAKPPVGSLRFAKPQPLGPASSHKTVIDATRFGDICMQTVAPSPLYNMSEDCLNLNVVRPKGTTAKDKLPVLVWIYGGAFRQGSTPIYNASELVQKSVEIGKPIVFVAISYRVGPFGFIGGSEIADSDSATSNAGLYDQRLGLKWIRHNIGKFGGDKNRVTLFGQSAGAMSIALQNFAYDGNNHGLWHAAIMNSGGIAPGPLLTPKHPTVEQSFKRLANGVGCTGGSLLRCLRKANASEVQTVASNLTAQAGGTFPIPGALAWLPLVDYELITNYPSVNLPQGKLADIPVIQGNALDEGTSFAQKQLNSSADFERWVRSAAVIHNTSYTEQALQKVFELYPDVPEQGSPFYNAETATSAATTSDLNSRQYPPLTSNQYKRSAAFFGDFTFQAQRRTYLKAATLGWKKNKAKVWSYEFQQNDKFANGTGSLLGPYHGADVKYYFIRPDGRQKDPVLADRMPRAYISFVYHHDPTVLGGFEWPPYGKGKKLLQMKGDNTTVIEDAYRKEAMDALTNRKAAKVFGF
A. niger FAEB, sequence (Q8WZI8 18-521): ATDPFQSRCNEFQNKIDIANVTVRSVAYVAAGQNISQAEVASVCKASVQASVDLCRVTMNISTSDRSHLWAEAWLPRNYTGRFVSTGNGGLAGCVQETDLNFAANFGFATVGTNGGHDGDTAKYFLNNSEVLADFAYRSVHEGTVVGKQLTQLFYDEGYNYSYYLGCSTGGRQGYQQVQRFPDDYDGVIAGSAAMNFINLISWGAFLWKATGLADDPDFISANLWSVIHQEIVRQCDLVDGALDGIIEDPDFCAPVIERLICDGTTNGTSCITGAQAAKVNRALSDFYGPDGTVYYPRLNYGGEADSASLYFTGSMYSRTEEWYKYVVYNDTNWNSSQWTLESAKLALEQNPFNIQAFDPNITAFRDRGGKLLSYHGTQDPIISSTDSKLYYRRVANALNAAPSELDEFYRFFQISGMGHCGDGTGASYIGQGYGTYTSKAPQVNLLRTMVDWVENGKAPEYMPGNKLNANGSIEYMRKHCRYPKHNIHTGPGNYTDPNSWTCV

CN(C)C=O [DMF]
Relative esterase activity (UmChlE [1]): 1 (0.76) %

COc1cc(/C=C/C(=O)OC[C@@H]2OC(O)[C@H](O[C@@H]3OC[C@@H](O)[C@H](O)[C@H]3O)[C@H]2O)ccc1O (stereo partly drawn) [F-AX, β-D-xylopyranosyl-(1→2)-5-O-trans-feruloyl-L-arabinofuranose]
Specific esterase activity (UmChlE [2]): 1.6 U mg^-1 and 1.63 U mg^-1 | Specific activity (RsChlE): 4.97 U/mg | specific activities [3]: 5.3 U mg^-1

O=C(/C=C/c1ccc(O)c(O)c1)O[C@@H]1C[C@](O)(C(=O)O)C[C@@H](O)[C@H]1O [chlorogenic acid]
Specific esterase activity (UmChlE [2]): 2.8 U mg^-1 and 2.76 U mg^-1 | kcat (UmChlE [4]): 0.51 s⁻¹ | Specific activity (RsChlE): 5.15 U/mg | Km [5]: 6.5 to 10 µM | Km [6]: 700 µM | Km (A. niger FAEB): 245 µM | Km [7]: 180 µM | Km (AoFaeB from A. oryzae): 630 µM

COC(=O)/C=C/c1ccc(O)c(OC)c1 [methyl ferulate]
Specific esterase activity (UmChlE [2]): 1.27 U mg^-1 | kcat (UmChlE [4]): 0.38 s⁻¹ | Specific activity (RsChlE): 3.19 U/mg | specific activities [3]: 14.4 U mg^-1

COC(=O)/C=C/c1ccc(O)cc1 [methyl p-coumarate]
Specific esterase activity (UmChlE [2]): 1.43 U mg^-1 | kcat (UmChlE [4]): 0.49 s⁻¹ | Specific activity (RsChlE): 6.19 U/mg | Km [8]: 20 µM

B1: RsChlE (Rhizoctonia solani) (protein)
chain: MGCDRPRQALHSLQEFTVMFSKWLPISAILLYGASAKALDCAGLFKKSQTLIKGINPFVAEVHPANVTFVPVGNIAYPDPVPDLPEFCRFGAEYNTSSKSKFRFEVWLPTSKKWNGRFAFIGNGGDAGGVNYADMAIPLAKYGFVVASTNTGHDGTHGDGTFAISNPESQIDFGHRAVHLSTVFAKTIAKSYYGKPSTYNYWIGCSSGGKQGLKSAQAYPADFDGVIAGAPAQWWPHLNGFTTHVNMLNAKATTPGATIPTSFFTALNQEVVAQCGKLDGVDDGIITNPRLCKPDLTRVACGSTNASPYVNSSNCLSKLQLVTLKAIYTNWTSSNGEFLFPTFEPGSEFGWPNTVNGVPYGPGPDYFLYQVYNKTSVQKLQINEAELQRLVAIADVTNPGQSRAIDPNLNPFFKRGGKLLQYHGFADPLIPSGSSLWYYEHVRSYFKNADLSDRYRLFMIPGVAHCSGGPGADAFGRPGQRSVSLGGAGQSLSFTPQYDMILATINWVEKGVAPKSLIGTKYKNNNIREGAKFTRLFCPYPQEAIYRGGNVNVASSYSCGVRA
Km [9]: 35,8 µM | Vmax [9]: 26,5 U/mg | kcat [9]: 33,13 s^-1 | kcat/Km [9]: 925,28 mM * s^-1 | Km [10]: 28,5 µM | Vmax [10]: 16 U/mg | kcat [10]: 20,00 s^-1 | Km [11]: 38,4 µM | Vmax [11]: 23,3 U/mg | kcat [11]: 29,13 s^-1 | Km [12]: 18,3 µM | Vmax [12]: 23,4 U/mg | kcat [12]: 29,25 s^-1
